# Patent US20240148821A1, “PHARMACEUTICAL USE OF CYCLIC PEPTIDE COMPOUND” (CHUGAI SEIYAKU KABUSHIKI KAISHA, priority 2021, published 2024)
# Numbered stars: 1 amine (or outer) side, 2 acyl side, 3 side chain; on linkers, the order of the positions; unused ones are H or OH. Bridge positions count the residues as written; N and C are the ends. Square brackets hold non-standard residues; d marks the D form. Peptide text beside a SMILES is read from it. * marks the point of attachment. hPhe(3,5-F2-4-CF3) = N[C@@H](CCc1cc(F)c(C(F)(F)F)c(F)c1)C(=O)O; hPhe(3-Cl-4-CF3) = N[C@@H](CCc1ccc(C(F)(F)F)c(Cl)c1)C(=O)O; hPhe(3-F,4-CF3) = N[C@@H](CCc1ccc(C(F)(F)F)c(F)c1)C(=O)O; X19 = O=C([C@@H]1C[C@@H](N2CCC(F)(F)CC2)CN1[*:1])[*:2]; NMePhe(4-CF3) = CN[C@@H](Cc1ccc(C(F)(F)F)cc1)C(=O)O; X24 = COc1cncc(C[C@@H](C(=O)[*:2])N(C)[*:1])c1; NMePhe(4-Cl) = CN[C@@H](Cc1ccc(Cl)cc1)C(=O)O; NMePhe(4-Me) = CN[C@@H](Cc1ccc(C)cc1)C(=O)O; NMePhe(2-Cl) = CN[C@@H](Cc1ccccc1Cl)C(=O)O; hPhe(4-Cl) = N[C@@H](CCc1ccc(Cl)cc1)C(=O)O; NMedβ3hAla = C[C@H](CC(=O)[*:2])N(C)[*:1]; NMeGly(cPent) = CN[C@H](C(=O)O)C1CCCC1; NMeCha = CN[C@@H](CC1CCCCC1)C(=O)O; NMeAhp(2) = CCCCC[C@H](NC)C(=O)O; NMeChg = CN[C@H](C(=O)O)C1CCCCC1; NMeI = CC[C@H](C)[C@H](NC)C(=O)O; NMeD = CN[C@@H](CC(=O)O)C(=O)O; NMeL = CN[C@@H](CC(C)C)C(=O)O; Chg = N[C@H](C(=O)O)C1CCCCC1; NMeV = CN[C@H](C(=O)O)C(C)C; d(β3hA) = C[C@@H](N)CC(=O)O; NMeS = CN[C@@H](CO)C(=O)O; Morpholide = C1CN(*)CCO1; NMeA = CN[C@@H](C)C(=O)O; NMeAib = CNC(C)(C)C(=O)O; Piperidide = C1CCN(*)CC1; Pra = C#CC[C@H](N)C(=O)O; Pyrrolidide = C1CCN(*)C1; Ac5c = NC1(C(=O)O)CCCC1; Aze = O=C(O)[C@@H]1CCN1; Isopentyl = CC(C)CC*; Sar = CNCC(=O)O
# Legend:
# [1] = biological target: protein-protein interaction between Kras and SOS1 (biotin-tagged human Kras loaded with GDP, His-tagged human SOS1) (Homo sapiens (Human), UniProt P01116, G12D); assay: Protein-protein interaction inhibition between Kras and SOS1 (KrasG12D-SOS PPI) using AlphaScreen; type: biochemical; conditions: AlphaScreen; biotin-tagged human Kras loaded with GDP, His-tagged human SOS1; read-out: KRAS G12D-SOS PPI IC50;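 note: kras produced in E. coli, Ni-coupled donor beads and streptavidin acceptor beads, excitation 680 nm with emission detected at 520–620 nm via singlet oxygen transfer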
# [2] = test system: Human pancreatic cancer cell line AsPC-1 (G12D mutation Kras); assay: AsPC-1 cell growth inhibition (AsPC-1 CGI); type: cell-based; conditions: read-out: AsPC-1 cell growth inhibition, 50% growth inhibitory concentration (IC50 value); 96 hours, CellTiter-Glo, values classified in ranges
# Protocol: Test compounds were serially dilated with dimethyl sulfoxide, and 200 nL was then dispensed to a U-bottom 96-well plate using Labcyte Echo. […] The cell suspension was dispensed to a. plate containing a test compound at 100 μL per well and incubated at 37° C. in a 5% carbon dioxide gas incubator. 96 hours later, 80 μL of CellTiter-Glo (Promega) was added to each well and fluorescence was measured.
Structure (SMILES),IC50 [1] [nM],IC50 [2] [nM]
CC[C@H](C)[C@@H]1NC(=O)[C@H](CC(C)C)N(C)C(=O)C[C@@H](C(=O)N2CCCC2)N(C)C(=O)[C@H]([C@@H](C)CC)N(C)C(=O)C2(CCCC2)NC(=O)[C@@H]2CCCN2C(=O)[C@H](CCc2ccc(C(F)(F)F)c(Cl)c2)NC(=O)CN(C)C(=O)[C@H](Cc2ccc(C(F)(F)F)cc2)N(C)C(=O)[C@@H]2CCN2C(=O)[C@H](C)N(C)C1=O [Compound 882] ([NMeL]I[NMeA][Aze][NMePhe(4-CF3)][Sar][hPhe(3-Cl-4-CF3)]P[Ac5c][NMeI][NMeD]-Pyrrolidide; lactam N-11),0.47,≤ 20
"CC[C@H](C)[C@@H]1NC(=O)[C@H](CC(C)C)N(C)C(=O)C[C@@H](C)N(C)C(=O)[C@H](CC(C)C)NC(=O)C(C)(C)N(C)C(=O)[C@H](CC(C)C)NC(=O)[C@H](CCc2ccc(C(F)(F)F)c(F)c2)NC(=O)CN(C)C(=O)[C@H](CC2CCCCC2)N(C)C(=O)CN(C)C(=O)CN(C)C1=O [Compound 883] (cyclo(I[Sar][Sar][NMeCha][Sar][hPhe(3-F,4-CF3)]L[NMeAib]L[NMedβ3hAla][NMeL]))",49,> 500
CC[C@H](C)[C@@H]1NC(=O)[C@H](CC(C)C)N(C)C(=O)C[C@@H](C(=O)N2CCCCC2)N(C)C(=O)[C@H](C2CCCCC2)N(C)C(=O)C2(CCCC2)NC(=O)[C@H](Cc2cncc(OC)c2)N(C)C(=O)[C@H](CCc2ccc(C(F)(F)F)c(Cl)c2)NC(=O)CN(C)C(=O)[C@H](CC2CCCCC2)N(C)C(=O)CN(C)C(=O)CN(C)C1=O [Compound 887] ([NMeL]I[Sar][Sar][NMeCha][Sar][hPhe(3-Cl-4-CF3)][X24][Ac5c][NMeChg][NMeD]-Piperidide; lactam N-11),6.2,> 500
CC[C@H](C)[C@@H]1NC(=O)[C@H](C(C)C)N(C)C(=O)C[C@@H](C)NC(=O)[C@H](CC(C)C)N(C)C(=O)C2(CCCC2)NC(=O)[C@H](CC(C)C)N(C)C(=O)[C@H](CCc2ccc(C(F)(F)F)c(Cl)c2)NC(=O)CN(C)C(=O)[C@H](CC2CCCCC2)N(C)C(=O)CN(C)C(=O)CN(C)C1=O [Compound 892] (cyclo([Ac5c][NMeL][d(β3hA)][NMeV]I[Sar][Sar][NMeCha][Sar][hPhe(3-Cl-4-CF3)][NMeL])),68,> 500
CCCCC[C@H]1C(=O)N[C@@H]([C@@H](C)CC)C(=O)N(C)[C@@H](C)C(=O)N2CC[C@H]2C(=O)N(C)[C@@H](Cc2ccc(C)cc2)C(=O)N(C)CC(=O)N[C@@H](CCc2ccc(C(F)(F)F)c(Cl)c2)C(=O)N2CCC[C@H]2C(=O)NC2(CCCC2)C(=O)N(C)[C@@H]([C@@H](C)CC)C(=O)N(C)[C@H](C(=O)N(C)C)CC(=O)N1C [Compound 896] ([NMeAhp(2)]I[NMeA][Aze][NMePhe(4-Me)][Sar][hPhe(3-Cl-4-CF3)]P[Ac5c][NMeI][NMeD]-NMe2; lactam N-11),1.1,≤ 20
"CC[C@H](C)[C@@H]1NC(=O)[C@H](CC(C)C)N(C)C(=O)C[C@@H](C)N(C)C(=O)[C@H](C2CCCCC2)NC(=O)C(C)(C)N(C)C(=O)[C@H](CC(C)C)NC(=O)[C@H](CCc2ccc(C(F)(F)F)c(F)c2)NC(=O)CN(C)C(=O)[C@H](Cc2ccc(Cl)cc2)N(C)C(=O)CN(C)C(=O)CN(C)C1=O [Compound 897] (cyclo([Chg][NMedβ3hAla][NMeL]I[Sar][Sar][NMePhe(4-Cl)][Sar][hPhe(3-F,4-CF3)]L[NMeAib]))",150,> 500
CC[C@H](C)[C@@H]1NC(=O)[C@H](C)N(C)C(=O)C[C@@H](C(=O)N2CCCCC2)N(C)C(=O)[C@H](C(C)C)N(C)C(=O)C2(CCCC2)NC(=O)[C@@H]2CCCN2C(=O)[C@H](CCc2ccc(Cl)cc2)NC(=O)CN(C)C(=O)[C@H](CC2CCCCC2)N(C)C(=O)[C@@H]2CCN2C(=O)[C@H](C)N(C)C1=O [Compound 903] ([NMeA]I[NMeA][Aze][NMeCha][Sar][hPhe(4-Cl)]P[Ac5c][NMeV][NMeD]-Piperidide; lactam N-11),24,> 500
"CC[C@H](C)[C@@H]1NC(=O)[C@H](CC(C)C)N(C)C(=O)C[C@@H](C)N(C)C(=O)[C@H]([C@@H](C)CC)N(C)C(=O)C2(CCCC2)NC(=O)[C@@H]2CCCN2C(=O)[C@H](CCc2cc(F)c(C(F)(F)F)c(F)c2)NC(=O)CN(C)C(=O)[C@H](Cc2ccc(C(F)(F)F)cc2)N(C)C(=O)[C@@H]2CCN2C(=O)[C@H](C)N(C)C1=O [Compound 907] (cyclo([Ac5c][NMeI][NMedβ3hAla][NMeL]I[NMeA][Aze][NMePhe(4-CF3)][Sar][hPhe(3,5-F2-4-CF3)]P))",1.4,≤ 20
CC[C@H](C)[C@@H]1NC(=O)[C@H](C)N(C)C(=O)C[C@@H](C(=O)N2CCCCC2)N(C)C(=O)[C@H](C(C)C)N(C)C(=O)C2(CCCC2)NC(=O)[C@@H]2C[C@@H](N3CCC(F)(F)CC3)CN2C(=O)[C@H](CCc2ccc(C(F)(F)F)c(Cl)c2)NC(=O)CN(C)C(=O)[C@H](CC2CCCCC2)N(C)C(=O)CN(C)C(=O)CN(C)C1=O [Compound 914] ([NMeA]I[Sar][Sar][NMeCha][Sar][hPhe(3-Cl-4-CF3)][X19][Ac5c][NMeV][NMeD]-Piperidide; lactam N-11),1.1,> 500
"CC[C@H](C)[C@@H]1NC(=O)[C@H](CC(C)C)N(C)C(=O)C[C@@H](C(=O)N2CCOCC2)N(C)C(=O)[C@H](C2CCCC2)N(C)C(=O)C2(CCCC2)NC(=O)[C@@H]2CCCN2C(=O)[C@H](CCc2ccc(C(F)(F)F)c(F)c2)NC(=O)CN(C)C(=O)[C@H](Cc2ccc(C)cc2)N(C)C(=O)[C@@H]2CCN2C(=O)[C@H](C)N(C)C1=O [Compound 938] ([NMeL]I[NMeA][Aze][NMePhe(4-Me)][Sar][hPhe(3-F,4-CF3)]P[Ac5c][NMeGly(cPent)][NMeD]-Morpholide; lactam N-11)",0.69,≤ 20
CC[C@H](C)[C@@H]1NC(=O)[C@H](CC(C)C)N(C)C(=O)C[C@@H](C(=O)N2CCCCC2)N(C)C(=O)[C@H](C(C)C)N(C)C(=O)C2(CCCC2)NC(=O)[C@H](C)N(C)C(=O)[C@H](CCc2ccc(C(F)(F)F)c(Cl)c2)NC(=O)CN(C)C(=O)[C@H](CC2CCCCC2)N(C)C(=O)CN(C)C(=O)CN(C)C1=O [Compound 939] ([NMeL]I[Sar][Sar][NMeCha][Sar][hPhe(3-Cl-4-CF3)][NMeA][Ac5c][NMeV][NMeD]-Piperidide; lactam N-11),8,> 500
CC[C@H](C)[C@@H]1NC(=O)[C@H](CC(C)C)N(C)C(=O)C[C@@H](C(=O)N2CCCCC2)N(C)C(=O)[C@H](C2CCCCC2)N(C)C(=O)C2(CCCC2)NC(=O)[C@H](COCCC(C)C)N(C)C(=O)[C@H](CCc2ccc(C(F)(F)F)c(Cl)c2)NC(=O)CN(C)C(=O)[C@H](CC2CCCCC2)N(C)C(=O)CN(C)C(=O)CN(C)C1=O [Compound 940] ([NMeL]I[Sar][Sar][NMeCha][Sar][hPhe(3-Cl-4-CF3)][NMeS](Isopentyl)[Ac5c][NMeChg][NMeD]-Piperidide; lactam N-11),150,> 500
C#CC[C@@H]1NC(=O)[C@H](CC(C)C)N(C)C(=O)C[C@@H](C(=O)N2CCCCC2)N(C)C(=O)[C@H](C(C)C)N(C)C(=O)C2(CCCC2)NC(=O)[C@@H]2CCCN2C(=O)[C@H](CCc2ccc(C(F)(F)F)c(Cl)c2)NC(=O)CN(C)C(=O)[C@H](CC2CCCCC2)N(C)C(=O)[C@@H]2CCN2C(=O)[C@H](C)N(C)C1=O [Compound 946] ([NMeL][Pra][NMeA][Aze][NMeCha][Sar][hPhe(3-Cl-4-CF3)]P[Ac5c][NMeV][NMeD]-Piperidide; lactam N-11),7.5,> 500
"CC(C)C[C@@H]1NC(=O)C(C)(C)N(C)C(=O)[C@H](CC(C)C)NC(=O)[C@H](CCc2ccc(C(F)(F)F)c(F)c2)NC(=O)CN(C)C(=O)[C@H](Cc2ccc(Cl)cc2)N(C)C(=O)CN(C)C(=O)CN(C)C(=O)[C@H](C(C)C)NC(=O)[C@H](CC(C)C)N(C)C(=O)C[C@@H](C)N(C)C1=O [Compound 956] (cyclo(L[NMeAib]L[NMedβ3hAla][NMeL]V[Sar][Sar][NMePhe(4-Cl)][Sar][hPhe(3-F,4-CF3)]))",80,> 500
CC[C@H](C)[C@@H]1NC(=O)[C@H](C)N(C)C(=O)C[C@@H](C(=O)N2CCCCC2)N(C)C(=O)[C@H](C(C)C)N(C)C(=O)C2(CCCC2)NC(=O)[C@H](Cc2ccccc2Cl)N(C)C(=O)[C@H](CCc2ccc(C(F)(F)F)c(Cl)c2)NC(=O)CN(C)C(=O)[C@H](CC2CCCCC2)N(C)C(=O)CN(C)C(=O)CN(C)C1=O [Compound 963] ([NMeA]I[Sar][Sar][NMeCha][Sar][hPhe(3-Cl-4-CF3)][NMePhe(2-Cl)][Ac5c][NMeV][NMeD]-Piperidide; lactam N-11),13,> 500
"CC[C@H](C)[C@@H]1NC(=O)[C@H](CC(C)C)N(C)C(=O)C[C@@H](C(=O)N(C)C)N(C)C(=O)[C@H](C2CCCC2)N(C)C(=O)C2(CCCC2)NC(=O)[C@@H]2CCCN2C(=O)[C@H](CCc2cc(F)c(C(F)(F)F)c(F)c2)NC(=O)CN(C)C(=O)[C@H](Cc2ccc(C)cc2)N(C)C(=O)[C@@H]2CCN2C(=O)[C@H](C)N(C)C1=O [Compound 965] ([NMeL]I[NMeA][Aze][NMePhe(4-Me)][Sar][hPhe(3,5-F2-4-CF3)]P[Ac5c][NMeGly(cPent)][NMeD]-NMe2; lactam N-11)",0.86,≤ 20
"CC[C@H](C)[C@@H]1NC(=O)[C@H](CC(C)C)N(C)C(=O)C[C@@H](C)N(C)C(=O)[C@H](C(C)C)NC(=O)C(C)(C)N(C)C(=O)[C@H](CC(C)C)NC(=O)[C@H](CCc2ccc(C(F)(F)F)c(F)c2)NC(=O)CN(C)C(=O)[C@H](CC2CCCCC2)N(C)C(=O)CN(C)C(=O)CN(C)C1=O [Compound 967] (cyclo(I[Sar][Sar][NMeCha][Sar][hPhe(3-F,4-CF3)]L[NMeAib]V[NMedβ3hAla][NMeL]))",58,> 500
